Laboratory results reported in US10168338B2, “Methods of identifying modulators of sestrin-gator-2 interaction for modulating mTORC1 activity” (Whitehead Institute for Biomedical Research, priority 2014, dated 2019).

Key:
[1] = biological target: T1, Sestrin-GATOR2 interaction (Homo sapiens, UniProt P58004); experiment: Effect of specific amino acids on Sestrin-GATOR2 interaction (FLAG-WDR24 immunoprecipitation, immunoblot); type: cell-based; conditions: HEK-293T stably expressing FLAG-WDR24; starvation/restimulation, pre- or post-lysis addition, washes of immunoprecipitates
T1 construct: To isolate the FLAG-WDR24/endogenous-Sestrin2 complex; endogenous in cells; host or cells: HEK-293T cells stably expressing FLAG-WDR24; Sestrin2 and the other GATOR2 subunits are endogenous
T1 sequence (P58004 1-480): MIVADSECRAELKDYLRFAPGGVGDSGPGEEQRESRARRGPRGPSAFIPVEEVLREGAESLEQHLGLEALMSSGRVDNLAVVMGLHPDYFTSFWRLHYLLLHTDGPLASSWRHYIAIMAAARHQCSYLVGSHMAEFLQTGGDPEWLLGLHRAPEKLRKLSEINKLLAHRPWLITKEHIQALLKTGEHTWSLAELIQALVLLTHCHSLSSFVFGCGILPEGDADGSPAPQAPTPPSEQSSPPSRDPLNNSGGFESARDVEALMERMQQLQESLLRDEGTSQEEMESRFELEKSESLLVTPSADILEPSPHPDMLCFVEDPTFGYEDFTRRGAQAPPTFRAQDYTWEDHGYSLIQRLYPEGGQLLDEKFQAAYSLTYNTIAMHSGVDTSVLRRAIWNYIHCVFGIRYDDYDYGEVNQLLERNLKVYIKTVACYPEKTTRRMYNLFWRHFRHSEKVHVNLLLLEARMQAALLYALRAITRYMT
Description: In order to further explore if specific amino acid levels affected the Sestrin-GATOR2 interaction, HEK-293T cells stably expressing the FLAG-tagged GATOR2 component WDR24 (and FLAG-tagged metap2 as a control) were starved of either all amino acids (ALL); only leucine, arginine, and lysine (LRK); only leucine (L); only arginine (R); or only lysine (K) for 50 minutes, or starved for 50 minutes and restimulated for 10 minutes with the indicated amino acids.
HEK-293T cells stably expressing the FLAG-tagged GATOR2 component WDR24 were starved of all amino acids for 50 minutes. Individual amino acids were added pre-lysis to the cell culture media or post-lysis to cell lysates prior to FLAG immunoprecipitation.
Finally, HEK-293T cells stably expressing the FLAG-tagged GATOR2 component WDR24 were starved of all amino acids for 50 minutes. Immunoprecipitates were subjected to washes containing the indicated amounts of leucine or arginine and analyzed along with cell lysates by immunoblotting for the indicated proteins as shown in FIG. 8C.

Sestrin3 = biological target: T2, Sestrin3 (Homo sapiens, UniProt P58005); experiment: [3H]-leucine binding to FLAG-Sestrin3 immunoprecipitated from HEK-293T cells; conditions: FLAG-tagged protein from HEK-293T
T2 construct: expressed in transfected cells; host or cells: HEK-293T, transient transfection of a pRK5-based cDNA plasmid, anti-FLAG immunoprecipitation
T2 sequence (P58005 1-492): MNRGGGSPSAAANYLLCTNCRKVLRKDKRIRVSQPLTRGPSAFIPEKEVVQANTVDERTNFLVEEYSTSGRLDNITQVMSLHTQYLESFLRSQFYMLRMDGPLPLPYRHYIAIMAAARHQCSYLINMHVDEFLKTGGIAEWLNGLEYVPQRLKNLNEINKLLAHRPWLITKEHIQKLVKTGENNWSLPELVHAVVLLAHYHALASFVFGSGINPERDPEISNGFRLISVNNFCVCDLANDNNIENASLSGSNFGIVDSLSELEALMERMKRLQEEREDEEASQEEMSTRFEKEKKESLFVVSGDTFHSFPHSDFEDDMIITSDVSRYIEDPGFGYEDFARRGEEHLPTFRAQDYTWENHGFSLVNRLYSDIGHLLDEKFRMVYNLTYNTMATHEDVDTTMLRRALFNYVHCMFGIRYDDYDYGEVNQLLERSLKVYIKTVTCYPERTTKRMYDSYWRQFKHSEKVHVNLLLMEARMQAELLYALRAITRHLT
Description: (§1) Four million HEK-293T cells were plated in a 15 cm plate four days prior to the experiment. Each plate yielded the protein for one sample. Forty-eight hours after plating, the cells were transfected via the polyethylenimine method (O. Boussif et al., PNAS (USA), 92:7297-7301 (1995)) with the pRK5-based cDNA expression plasmids indicated in the figures in the following amounts: 5 μgFLAG-Sestrin2; 12 μg of the negative control Rap2A; 5 μg WDR24; 2 μg WDR24 with 4 μg each of HA-Seh1L, HA-Sec13, HA-Mios, and HA-WDR59; 12 […] (CG11299-PD); 12 μgFLAG-Sestrin1.1; 12 μg FLAG-Sestrin1.2; 12 μg FLAG-Sestrin3; 12 μg FLAG-Sestrin2 mutants (L261A, E451A, S190A) and up to 20 μg total DNA with empty-PRK5. Forty-eight hours after transfection cells were lysed as described in Example 1. […]
(§2) For the binding assays, two tubes at a time were washed as previously indicated for immunoprecipitations. […] With a cut tip, each sample was mixed well and three 10 μl aliquots were separately quantified using a TriCarb® scintillation counter (PerkinElmer). This process was repeated in pairs for each sample, to ensure similar incubation and wash times for all samples analyzed across different experiments.

Sestrin2 = biological target: T3, Sestrin2 (Homo sapiens, UniProt P58004); experiment: [3H]-labeled amino acid binding to FLAG-Sestrin2 immunoprecipitated from HEK-293T cells
T3 construct: expressed in transfected cells; host or cells: HEK-293T, transient transfection of a pRK5-based cDNA plasmid, anti-FLAG immunoprecipitation
T3 sequence (P58004 1-480): T1 sequence (P58004 1-480)
Description: Four million HEK-293T cells were plated in a 15 cm plate four days prior to the experiment. Each plate yielded the protein for one sample. Forty-eight hours after plating, the cells were transfected via the polyethylenimine method (O. Boussif et al., PNAS (USA), 92:7297-7301 (1995)) with the pRK5-based cDNA expression plasmids indicated in the figures in the following amounts: 5 μgFLAG-Sestrin2; 12 μg of the negative control Rap2A; 5 μg WDR24; 2 μg WDR24 with 4 μg each of HA-Seh1L, HA-Sec13, HA-Mios, and HA-WDR59; 12 […] (CG11299-PD); 12 μgFLAG-Sestrin1.1; 12 μg FLAG-Sestrin1.2; 12 μg FLAG-Sestrin3; 12 μg FLAG-Sestrin2 mutants (L261A, E451A, S190A) and up to 20 μg total DNA with empty-PRK5. Forty-eight hours after transfection cells were lysed as described in Example 1. If multiple samples of the same type were represented in the experiment, the cell lysates were combined, mixed, and evenly distributed amongst the relevant tubes, to ensure equal protein amounts across samples of the same type.
Anti-FLAG immunoprecipitates were prepared as previously described, with the exception that, prior to incubation with lysates, the beads were blocked by rotating in 1 μg/μl bovine serum albumin (BSA) for 20 minutes at 4° C. and subsequently washed twice in lysis buffer. Thirty μl of the 50/50 slurry of beads in lysis buffer was added to each of the clarified cell lysates and incubated as previously described in Example 1.
For the binding assays, two tubes at a time were washed as previously indicated for immunoprecipitations. All the liquid was subsequently aspirated and a 15 μl aliquot of proteins bound to the beads was incubated for one hour on ice in cytosolic buffer (0.1% Triton, 40 mM HEPES pH 7.4, 10 mM NaCl, 150 mM KCl, 2.5 mM MgCl2) with the appropriate amount of [^3H]-labeled amino acids and unlabeled amino acids. Tubes were flicked every five minutes. At the end of one hour, the beads were briefly spun down, aspirated dry, and rapidly washed three times with binding wash buffer (0.1% Triton, 40 mM HEPES pH 7.4, 150 mM NaCl). The beads were aspirated dry again and resuspended in 85 μl of binding wash buffer. With a cut tip, each sample was mixed well and three 10 μl aliquots were separately quantified using a TriCarb® scintillation counter (PerkinElmer). This process was repeated in pairs for each sample, to ensure similar incubation and wash times for all samples analyzed across different experiments.
Amino acid affinities to Sestrin2 were determined by first normalizing the bound [^3H]-labeled amino acid concentrations across three separate binding assays performed with varying amounts of unlabeled amino acid competition. These values were plotted and fit to a hyperbolic equation ([…]) to estimate the IC50 value. Kd or Ki values were derived from the IC50 value using the equation: Kd or Ki=IC50/(1+([[^3H]Leucine])/Kd).

Sestrin1 = experiment: [3H]-leucine binding to FLAG-Sestrin1 immunoprecipitated from HEK-293T cells; design: species or system human; conditions: FLAG-tagged protein from HEK-293T
Description: as §1, §2

CC(C)C[C@H](N)C(=O)O [leucine]
disruption of the Sestrin-GATOR2 interaction [1]: disrupts the Sestrin-GATOR2 interaction
binding of leucine to Sestrin3 (Sestrin3): only slightly above background
binding of radiolabeled amino acid to Sestrin2 (Sestrin2; FLAG-Sestrin2 from HEK-293T, competed by excess unlabeled leucine): bound to Sestrin2
Kd (Sestrin2; competition with unlabeled leucine, 10 μM 3H-leucine, three experiments): 20 ± 5 µM
binding of leucine to Sestrin1 (Sestrin1): to a similar extent as Sestrin2
